We go through 25 compounds from the RepoRT retention time repository (doi:10.1021/pr300673x).

A short description of this series: RP, 50 × 2.1 mm, 1.7 µm, 0.5 mL/min, estimated dead time 0.22 min; A: 98% water + 2% acetonitrile + 0.1% formic acid, pH 3; B: 2% water + 98% acetonitrile + 0.1% formic acid, pH 3; gradient (min/%B) 0/0 0.5/0 4/60 8/100 9/100 9.2/0 10/0. The conditions noted are these: stereoisomer not certain.
As for `CC(CCC(=O)O)C1CCC2C3CC(O)C4CC(O)CCC4(C)C3CCC12C` (stereo not given), the LC retention time is 4.78 min. Turning to `CC(=CCCC(C)C1CCC2C3C(O)CC4CC(O)CCC4(C)C3CCC12C)C(=O)O` (racemic), the LC retention time was 6.87 min. In the case of `NC(N)=NCCC(=O)O` [3-guanidinopropionic acid], the LC retention time was 0.883 min. As for `CCCCCCCCCCCCCCCCCC(O)CC(=O)O` (stereo not given) [3-hydroxyeicosanoic acid], the LC retention time is 7.39 min. `C=CC1=C(C)C(=Cc2[nH]c(Cc3[nH]c(C=C4NC(=O)C(C)=C4C=C)c(C)c3CCC(=O)O)c(CCC(=O)O)c2C)NC1=O` [4E,15Z-bilirubin IXa]: the LC retention time is 7.62 min. In the case of `C=CC1=C(C)C(=O)N=C1C=c1[nH]c(=Cc2[nH]c(CC3NC(=O)C(C=C)=C3C)c(C)c2CCC(=O)O)c(CCC(=O)O)c1C` (stereo not given) [15,16-dihydrobiliverdin] it was 7.42 min. As for `CCCCCCCCCCCCCC=CC(O)C(COP(=O)(O)O)NC(=O)CCCCCCCCCCC` (stereo not given) [CerP(d18:1/12:0)], the LC retention time was 7.37 min. Under `NC(N)=NCCC[C@H](NCCC(=O)O)C(=O)O` [L-N2-(2-carboxyethyl)arginine] stands 4.28 min; under `CCCCCCCCC=CCCCCCCCCCC(=O)OCC(O)COP(=O)([O-])OCC[N+](C)(C)C` (stereo not given) [LysoPC(20:1)], 6.88 min. In the case of `CCCCCC=CCC=CCC=CCC=CCCCC(=O)OCC(O)COP(=O)([O-])OCC[N+](C)(C)C` (stereo not given) [LysoPC(20:4)] it was 7.74 min. Under `CC(=O)C(CCCCN)NS(=O)(=O)c1ccc(C)cc1` [N-tosyl-L-lysinyl methyl ketone] stands 7.42 min; under `CCCCCCCCCC(=O)O[C@H](CC(=O)[O-])C[N+](C)(C)C` [O-decanoyl-L-carnitine], 5.71 min; under `CCCCCC=CCC=CCCCCCCCC(=O)OC(CC(=O)[O-])C[N+](C)(C)C` (stereo not given) [O-linoelaidylcarnitine], 5.98 min. Turning to `CCCCCCCC(=O)O[C@H](CC(=O)[O-])C[N+](C)(C)C` [O-octanoyl-R-carnitine], the LC retention time was 5.12 min.

For the compound `CCCCCCCCCCCCCCCCOCC(O)COP(=O)([O-])OCC[N+](C)(C)C` (stereo not given) [PC(O-16:0/0:0)], the LC retention time was 6.42 min. `[NH3+]C(Cc1ccccc1)C(=O)NC(Cc1ccccc1)C(=O)[O-]` (stereo not given) [Phe-Phe]: the LC retention time was 2.91 min. With `CC(CCC(=O)NCC(=O)O)C1CCC2C3C(O)CC4CC(O)CCC4(C)C3CCC12C` (stereo not given) [glycochenodeoxycholic acid (GCDCA)], the LC retention time was 4.79 min. Consider `CC(CCC(=O)NCC(=O)O)C1CCC2C3C(O)CC4CC(O)CCC4(C)C3CC(O)C12C` (stereo not given) [glycocholic acid (GCA)], for which the LC retention time is 4.3 min. In the case of `CC(CCC(=O)NCC(=O)O)C1CCC2C3CCC4CC(O)CCC4(C)C3CC(O)C12C` (stereo not given) [glycodeoxycholic acid (GDCA)] it was 4.28 min; in that of `CCCCCC=CCC=CCCCCCCCC(=O)O` [octadecadienoic acid], 7.44 min.

For the compound `CCCCCCCCC=CCCCCCCCC(N)=O` [oleamide], the LC retention time is 7.16 min. Under `CCCCCCCCC=CCCCCCCCC(=O)OC(CC(=O)[O-])C[N+](C)(C)C` (stereo not given) [oleoylcarnitine] stands 6.24 min. In the case of `CCCCCCCCCCCCCCCC(=O)OC(CC(=O)[O-])C[N+](C)(C)C` (stereo not given) [palmitylcarnitine] it was 6.15 min; in that of `CC(=O)Cc1ccccc1` [phenylmethyl methyl ketone], 3.31 min. In the case of `CC(CCC(=O)NCCS(=O)(=O)O)C1CCC2C3C(O)CC4CC(O)CCC4(C)C3CCC12C` (stereo not given) [taurochenodeoxycholic acid (TCDCA)] it was 3.89 min.
